Laboratory results reported in patent publication US11999727B2 (Tango Therapeutics, Inc., priority 2020, dated 2024).
Read-outs that look alike come from different tables or passages of the source.

Assays:
PRMT5 [1] = biological target: T1, PRMT5 (Homo sapiens, UniProt O14744); assay: PRMT5 biochemical IC50 assay with no cofactor; conditions: PRMT5, no cofactor; read-out: No Cofactor/ rel IC50
T1 construct: purchased Viva (custom protein)
From the text: Table 1 indicates IC50 values (μM) against PRMT5 for exemplary compounds in the presence of SAM as cofactor, with no cofactor, and with MTA as cofactor, respectively (columns 4-6). […] Ki values can be calculated from the IC50 values as described in the Examples section. As detailed in the Examples section, for the assay performed in the presence of SAM, IC50=Ki×1.5 (Ki=IC50/1.5).

[2] = tested on: HAP1 MTAP-deleted cell line; assay: Viability assay, MTAP-deleted cell line; assay type: cell-based; conditions: Homo sapiens, read-out: HAP1 MTAP deleted viability
From the text: Table 1 additionally indicates IC50 values in a viability assay for the MTAP-deleted cell line (column 10), indicating the effect of treatment with compound on cell survival.

[3] = tested on: HAP1 MTAP-deleted cell line; assay: SDMA in-cell western assay, HAP1 MTAP-deleted; assay type: cell-based; conditions: for IC50: Homo sapiens, HAP1, SDMA in-cell western, HAP1 MTAP-deleted, read-out: HAP 1 MTAP deleted IC50; for MTAP intact/deleted ratio: IC50 ratio HAP1 MTAP-intact / HAP1 MTAP-deleted, SDMA in-cell western
Summary of the method: (§1)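 Isogenic HAP1 pair: the MTAP-intact line expresses endogenous MTAP, and the deleted line is MTAP-null. Symmetric dimethylarginine was detected by in-cell western and IC50 values derived for each line.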

PRMT5 [4] = biological target: T1, PRMT5; assay: PRMT5 biochemical IC50 assay with MTA as cofactor; conditions: PRMT5, MTA as cofactor; read-out: MTA IC50
[5] = tested on: HAP1 MTAP-intact cell line; assay: SDMA in-cell western assay, HAP1 MTAP-intact; assay type: cell-based; conditions: HAP1 MTAP-intact, read-out: MTAP HAP1 intact IC50
Summary of the method: as §1

PRMT5 [6] = biological target: T1, PRMT5; assay: PRMT5 biochemical IC50 assay with SAM as cofactor; conditions: PRMT5, SAM as cofactor; read-out: SAM IC50
[7] = HAP1, viability, HAP1 MTAP-deleted cell line
[8] = Homo sapiens, HAP1, SDMA in-cell western
[9] = HAP1, viability assay, MTAP-deleted cell line

T1 sequence (O14744 whole entry): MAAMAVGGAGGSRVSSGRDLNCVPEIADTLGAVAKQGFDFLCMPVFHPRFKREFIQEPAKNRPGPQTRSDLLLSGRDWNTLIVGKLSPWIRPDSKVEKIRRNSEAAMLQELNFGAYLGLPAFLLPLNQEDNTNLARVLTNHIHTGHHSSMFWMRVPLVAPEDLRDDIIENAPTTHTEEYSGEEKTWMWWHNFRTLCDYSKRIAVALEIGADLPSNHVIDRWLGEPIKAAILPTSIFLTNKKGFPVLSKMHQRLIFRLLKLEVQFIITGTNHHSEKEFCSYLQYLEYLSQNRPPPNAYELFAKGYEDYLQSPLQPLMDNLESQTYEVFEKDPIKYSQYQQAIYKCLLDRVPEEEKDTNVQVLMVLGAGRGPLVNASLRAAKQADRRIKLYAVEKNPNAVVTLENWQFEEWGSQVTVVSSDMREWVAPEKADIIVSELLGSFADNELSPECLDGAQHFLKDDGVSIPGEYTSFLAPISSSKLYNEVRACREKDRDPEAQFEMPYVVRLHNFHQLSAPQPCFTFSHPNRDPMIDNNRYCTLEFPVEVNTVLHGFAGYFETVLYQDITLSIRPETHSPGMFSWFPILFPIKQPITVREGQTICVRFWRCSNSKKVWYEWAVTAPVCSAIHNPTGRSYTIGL
T1 sequence (Q9BQA1 whole entry partner): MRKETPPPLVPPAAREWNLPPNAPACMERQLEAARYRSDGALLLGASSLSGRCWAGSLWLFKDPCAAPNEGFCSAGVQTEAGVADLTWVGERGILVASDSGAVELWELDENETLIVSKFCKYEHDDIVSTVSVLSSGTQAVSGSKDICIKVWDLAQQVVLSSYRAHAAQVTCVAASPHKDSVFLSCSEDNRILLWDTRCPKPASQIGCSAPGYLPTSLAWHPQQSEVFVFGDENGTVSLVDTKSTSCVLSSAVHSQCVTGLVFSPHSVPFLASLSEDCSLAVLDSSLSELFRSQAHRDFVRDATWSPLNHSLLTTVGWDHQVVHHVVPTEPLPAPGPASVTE

Row | SMILES | IC50 (PRMT5 [1]) | IC50 [2, 7] | IC50 [3] | MTAP intact/deleted ratio [3] | IC50 (PRMT5 [4]) | IC50 [5, 8] | IC50 (PRMT5 [6]) | IC50 ([5]; SDMA in-cell western) | IC50 [2, 9]
1 | CCc1cc(NC(=O)C(=O)N2C[C@H](C)C(F)(F)C[C@H]2c2ccc3[nH]ncc3c2)cnc1N (single isomer, unassigned) [Compound 1357, N-(6-amino-5-ethylpyridin-3-yl)-2-(4,4-difluoro-2-(1H-indazol-5-yl)-5-methylpiperidin-1-yl)-2-oxoacetamide] | 50 to 500 nM | < 1000 nM | < 100 nM | A (an IC50 ratio greater than or equal to 10 fold) | < 50 nM | < 100 nM | 50 to 500 nM | – | –
2 | Cc1cc(NC(=O)C(=O)N2C[C@H](C)CC[C@H]2c2ccc(CCN(C)C)cc2)cnc1N (single isomer, unassigned) [Compound 1358] | < 50 nM | < 1000 nM | < 100 nM | A (an IC50 ratio greater than or equal to 10 fold) | < 50 nM | < 100 nM | 50 to 500 nM | – | –
3 | CCc1cc(NC(=O)C(=O)N2C[C@@H](C)CC[C@@H]2c2ccc(N3CCN(CC)CC3)cc2)cnc1N (single isomer, unassigned) [Compound 1360] | > 500 nM | > 10000 nM | > 1000 nM | – | > 500 nM | > 1000 nM | > 500 nM | – | –
4 | C[C@@H]1CC[C@@H](c2ccc3[nH]ncc3c2)N(C(=O)C(=O)Nc2cnc(N)c(C3CC3)c2)C1 (single isomer, unassigned) [Compound 1361] | > 500 nM | > 10000 nM | > 1000 nM | – | > 500 nM | > 1000 nM | > 500 nM | – | –
5 | COc1ncc(NC(=O)C(=O)N2C[C@H](C)[C@H](OC)C[C@H]2c2ccc3scnc3c2)cc1C(N)=O (single isomer, unassigned) [Compound 1364] | < 50 nM | < 1000 nM | < 100 nM | A (an IC50 ratio greater than or equal to 10 fold) | < 50 nM | 100 to 1000 nM | 50 to 500 nM | – | –
6 | CO[C@H]1C[C@H](c2ccc3scnc3c2)N(C(=O)C(=O)Nc2cnc(N)c(C3CC3)c2)C[C@H]1C (single isomer, unassigned) [Compound 1370] | < 50 nM | < 1000 nM | < 100 nM | A (an IC50 ratio greater than or equal to 10 fold) | < 50 nM | < 100 nM | 50 to 500 nM | – | –
7 | CCc1cc(NC(=O)C(=O)N2C[C@@H](C)CC[C@@H]2c2ccc(N3CCN(C)CC3)cc2)cnc1N (single isomer, unassigned) [Compound 1371] | < 50 nM | < 1000 nM | < 100 nM | A (an IC50 ratio greater than or equal to 10 fold) | < 50 nM | 100 to 1000 nM | 50 to 500 nM | – | –
8 | CCc1cc(NC(=O)C(=O)N2C[C@H](C)CC[C@H]2c2ccc3c(cnn3CCN(C)C)c2)cnc1N (single isomer, unassigned) [Compound 1374] | < 50 nM | < 1000 nM | < 100 nM | A (an IC50 ratio greater than or equal to 10 fold) | < 50 nM | 100 to 1000 nM | 50 to 500 nM | – | –
9 | CCc1cc(NC(=O)C(=O)N2C[C@H](C)CC[C@H]2c2ccc3sc(CCOC)nc3c2)cnc1N (single isomer, unassigned) [Compound 1375] | > 500 nM | > 10000 nM | > 1000 nM | – | > 500 nM | > 1000 nM | > 500 nM | – | –
10 | CCc1cc(NC(=O)C(=O)N2C[C@@H](C)CC[C@@H]2c2ccc3sc(CCOC)nc3c2)cnc1N (single isomer, unassigned) [Compound 1386] | < 50 nM | < 1000 nM | < 100 nM | A (an IC50 ratio greater than or equal to 10 fold) | < 50 nM | 100 to 1000 nM | 50 to 500 nM | – | –
11 | Cc1cc(NC(=O)C(=O)N2C[C@@H](C)CC[C@@H]2c2cc3cn[nH]c3s2)cnc1N (single isomer, unassigned) [Compound 1392] | 50 to 500 nM | < 1000 nM | < 100 nM | A (an IC50 ratio greater than or equal to 10 fold) | < 50 nM | 100 to 1000 nM | 50 to 500 nM | – | –
12 | CCc1cc(NC(=O)C(=O)N2C[C@@H](C)CC[C@@H]2c2ccc3sc([C@H]4CCN(C)C(C)(C)C4)nc3c2)cnc1N (single isomer, unassigned) [Compound 1397] | < 50 nM | < 1000 nM | < 100 nM | A (an IC50 ratio greater than or equal to 10 fold) | < 50 nM | – | 50 to 500 nM | < 100 nM | –
13 | C[C@@H]1CC[C@@H](c2ccc3cn(C)nc3c2)N(C(=O)C(=O)Nc2cnc(N)c(C3CC3)c2)C1 (single isomer, unassigned) [Compound 1403] | < 50 nM | < 1000 nM | < 100 nM | A (an IC50 ratio greater than or equal to 10 fold) | < 50 nM | 100 to 1000 nM | 50 to 500 nM | – | –
14 | CC(=O)N1CCC(c2cccc(C3CCCCN3C(=O)C(=O)Nc3cncc(C)c3)c2)CC1 (stereo not drawn) [Compound 7, 2-(2-(3-(1-acetylpiperidin-4-yl)phenyl)piperidin-1-yl)-N-(5-methylpyridin-3-yl)-2-oxoacetamide] | > 500 nM | – | > 1000 nM | C (an IC50 ratio of less than 3 fold) | 50 to 500 nM | > 1000 nM | > 500 nM | – | > 10000 nM
15 | Cc1cc(NC(=O)C(=O)N2CCCCC2c2cccs2)cnc1N (stereo not drawn) [Compound 9, N-(6-Amino-5-methylpyridin-3-yl)-2-oxo-2-(2-(thiophen-2-yl)piperidin-1-yl)acetamide] | 50 to 500 nM | – | 100 to 1000 nM | A (an IC50 ratio greater than or equal to 10 fold) | < 50 nM | > 1000 nM | 50 to 500 nM | – | > 10000 nM
16 | Cc1cncc(NC(=O)C(=O)N2CCCCC2c2cccc(N(C)C)c2)c1 (stereo not drawn) [Compound 15, 2-(2-(3-(dimethylamino)phenyl)piperidin-1-yl)-N-(5-methylpyridin-3-yl)-2-oxoacetamide] | > 500 nM | – | > 1000 nM | C (an IC50 ratio of less than 3 fold) | 50 to 500 nM | > 1000 nM | > 500 nM | – | > 10000 nM
17 | Cn1nccc1C1CCCCN1C(=O)C(=O)Nc1cncc(C(N)=O)c1 (stereo not drawn) [Compound 26, 5-[[2-[2-(2-methylpyrazol-3-yl)-1-piperidyl]-2-oxo-acetyl]amino]pyridine-3-carboxamide] | > 500 nM | – | 100 to 1000 nM | A (an IC50 ratio greater than or equal to 10 fold) | 50 to 500 nM | > 1000 nM | 50 to 500 nM | – | > 10000 nM
18 | NC(=O)c1cncc(NC(=O)C(=O)N2CCCCC2c2ccccc2)c1 (stereo not drawn) [Compound 29, 5-[[2-oxo-2-(2-phenyl-1-piperidyl)acetyl]amino]pyridine-3-carboxamide] | > 500 nM | – | 100 to 1000 nM | A (an IC50 ratio greater than or equal to 10 fold) | 50 to 500 nM | > 1000 nM | 50 to 500 nM | – | > 10000 nM
19 | Cc1cc(NC(=O)C(=O)N2CCCCC2C2CCCCC2)cnc1N (stereo not drawn) [Compound 30, N-(6-amino-5-methyl-3-pyridyl)-2-[2-cyclohexyl-1-piperidyl]-2-oxo-acetamide] | 50 to 500 nM | – | 100 to 1000 nM | A (an IC50 ratio greater than or equal to 10 fold) | 50 to 500 nM | > 1000 nM | 50 to 500 nM | – | > 10000 nM
20 | Cc1cc(NC(=O)C(=O)N2CCCCC2c2cccnc2)cnc1N (stereo not drawn) [Compound 38, N-(6-Amino-5-methyl-3-pyridyl)-2-oxo-2-[2-(3-pyridyl)-1-piperidyl]acetamide] | 50 to 500 nM | – | > 1000 nM | B (an IC50 ratio greater than or equal to 3 fold but lower than 10 fold) | 50 to 500 nM | > 1000 nM | 50 to 500 nM | – | > 10000 nM
21 | CC1(C)CCC(c2ccccc2)N(C(=O)C(=O)Nc2cncc(C(N)=O)c2)C1 (stereo not drawn) [Compound 45, 5-(2-(5,5-dimethyl-2-phenylpiperidin-1-yl)-2-oxoacetamido)nicotinamide] | > 500 nM | – | 100 to 1000 nM | A (an IC50 ratio greater than or equal to 10 fold) | 50 to 500 nM | > 1000 nM | > 500 nM | – | > 10000 nM
